According to article PMC7772550 (Heliyon, 2020):

System: NO production
Assay: nitric oxide
Type: cell-based
Conditions: read-out: NO production inhibition IC50

IC50: 32.2 µM
SMILES: COc1ccc2c(c1)c(CC(=O)O)c(C)n2C(=O)c1ccc(Cl)cc1 [Indomethacin]
